The structures appear in SMILES notation.

The results in this text go back to patent US7169786B2, “Isoxazoline derivatives as anti-depressants” (priority 2001, dated 2007).

The target of assay [1] is T1, hα2A receptor (Homo sapiens, UniProt P08913).
T1 construct: expressed in transfected cells
T1 sequence (P08913 1-465): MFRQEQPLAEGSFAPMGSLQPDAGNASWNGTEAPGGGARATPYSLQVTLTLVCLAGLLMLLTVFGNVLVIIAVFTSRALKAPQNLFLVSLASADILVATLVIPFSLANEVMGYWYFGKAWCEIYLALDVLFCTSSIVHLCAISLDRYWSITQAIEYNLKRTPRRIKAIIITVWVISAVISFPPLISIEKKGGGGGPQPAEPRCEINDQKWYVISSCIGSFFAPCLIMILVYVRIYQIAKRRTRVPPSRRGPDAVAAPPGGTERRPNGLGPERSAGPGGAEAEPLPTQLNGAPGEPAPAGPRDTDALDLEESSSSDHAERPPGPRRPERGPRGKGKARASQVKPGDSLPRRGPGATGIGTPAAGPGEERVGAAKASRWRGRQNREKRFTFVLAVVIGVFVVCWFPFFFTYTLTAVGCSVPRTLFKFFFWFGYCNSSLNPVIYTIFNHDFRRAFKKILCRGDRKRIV
Description: Radioligand binding experiment for hα2A receptor ([3H]-raulwolscine). Conditions: membranes of CHO cells expressing human α2A receptor, [3H]raulwolscine 1 nM; for IC50: read-out: hα2A pIC50 (converted). The protocol: (§1) The interaction of the compounds of Formula (I) with hα2-receptors and h5-HT-transporters was assessed in in vitro radioligand binding experiments. In general, a low concentration of a radioligand with a high binding affinity for a particular receptor or transporter is incubated with a sample of a tissue preparation enriched in a particular receptor or transporter or with a preparation of cells expressing cloned human receptors in a buffered medium. During the incubation, the radioligand binds to the receptor or transporter. When equilibrium of binding is reached, the receptor bound radioactivity is separated from the non-bound radioactivity, and the receptor- or transporter-bound activity is counted. The interaction of the test compounds with the receptor is assessed in competition binding experiments. Various concentrations of the test compound are added to the incubation mixture containing the receptor- or transporter preparation and the radioligand. The test compound in proportion to its binding affinity and its concentration inhibits binding of the radioligand. The radioligand used for hα2A, hα2B and hα2C receptor binding was [^3H]-raulwolscine and for the h5-HT transporter was [^3H]paroxetine.
(§2) CHO cells, stabile transfected with human adrenergic-α2A-, -α2B or α2C receptor cDNA, were cultured in Dulbecco's Modified Eagle's Medium (DMEM)/Nutrient mixture Ham's F12 (ratio 1:1)(Gibco, Gent-Belgium) supplemented with 10% heat inactivated fetal calf serum (Life Technologies, Merelbeke-Belgium) and antibiotics (100 IU/ml penicillin G, 100 μg/ml streptomycin sulphate, 110 μg/ml pyruvic acid and 100 μg/ml L-glutamine). One day before collection, cells were induced with 5 mM sodiumbutyrate. Upon 80–90% of confluence, cells were scraped in phosphate buffered saline without Ca^2+ and Mg^2+ and collected by centrifugation at 1500×g for 10 min. The cells were homogenised in Tris-HCl 50 mM using an Ultraturrax homogenizer and centrifuged for 10 min at 23,500×g. The pellet was washed once by resuspension and rehomogenization and the final pellet was resuspended in Tris-HCl, divided in 1 ml aliquots and stored at −70° C.
(§3) Membranes were thawed and re-homogenized in incubation buffer (glycylglycine 25 mM, pH 8.0). […] Filters were rinsed extensively with ice-cold rinsing buffer (Tris-HCl 50 mM pH 7.4). Filter-bound radioactivity was determined by scintillation counting in a Topcount (Packard, Meriden, Conn.) and results were expressed as counts per minute (cpm). Non-specific binding was determined in the presence of 1 μM oxymetazoline for hα2A- and hα2B receptors and 1 μM spiroxatrine for hα2C receptors.
(§4) Data from assays in the presence of compound were calculated as a percentage of total binding measured in the absence of test compound. Inhibition curves, plotting percent of total binding versus the log value of the concentration of the test compound, were automatically generated, and sigmoidal inhibition curves were fitted using non-linear regression. The pIC50 values of test compounds were derived from individual curves.

Assay [2] has as its target T2, hα2B receptor (Homo sapiens, UniProt P18089).
T2 construct: expressed in transfected cells
T2 sequence (P18089 1-450): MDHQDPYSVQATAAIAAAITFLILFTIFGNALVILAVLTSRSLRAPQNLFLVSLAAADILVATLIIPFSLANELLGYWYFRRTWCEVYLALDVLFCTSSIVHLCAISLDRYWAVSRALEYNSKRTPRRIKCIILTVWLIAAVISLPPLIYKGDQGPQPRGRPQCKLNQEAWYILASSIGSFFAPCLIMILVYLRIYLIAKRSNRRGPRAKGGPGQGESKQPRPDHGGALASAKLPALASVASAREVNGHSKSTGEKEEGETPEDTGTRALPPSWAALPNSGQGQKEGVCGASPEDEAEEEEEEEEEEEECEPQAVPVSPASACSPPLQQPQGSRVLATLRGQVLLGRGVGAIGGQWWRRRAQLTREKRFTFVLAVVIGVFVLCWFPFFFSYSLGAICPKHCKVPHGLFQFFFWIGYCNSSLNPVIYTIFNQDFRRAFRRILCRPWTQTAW
The experiment in a line: Radioligand binding experiment for hα2B receptor ([3H]-raulwolscine). Conditions: membranes of CHO cells expressing human α2B receptor, [3H]raulwolscine 1 nM; for IC50: read-out: hα2B pIC50 (converted). How it is done: as §1, §2, §3, §4

The target in assay [3] is T3, hα2C receptor (Homo sapiens, UniProt P18825).
T3 construct: expressed in transfected cells
T3 sequence (P18825 1-462): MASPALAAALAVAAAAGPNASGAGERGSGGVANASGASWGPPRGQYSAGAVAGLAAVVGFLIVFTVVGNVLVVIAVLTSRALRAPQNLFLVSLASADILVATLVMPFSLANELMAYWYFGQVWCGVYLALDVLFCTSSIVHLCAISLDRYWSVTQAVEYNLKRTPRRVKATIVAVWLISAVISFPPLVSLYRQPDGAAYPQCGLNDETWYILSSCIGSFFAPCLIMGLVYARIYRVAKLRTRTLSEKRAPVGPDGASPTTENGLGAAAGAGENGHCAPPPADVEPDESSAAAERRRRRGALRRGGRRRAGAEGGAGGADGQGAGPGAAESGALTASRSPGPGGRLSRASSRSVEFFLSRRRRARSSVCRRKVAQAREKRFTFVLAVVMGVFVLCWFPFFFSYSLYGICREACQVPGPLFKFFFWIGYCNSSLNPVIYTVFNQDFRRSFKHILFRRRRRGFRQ
Description: Radioligand binding experiment for hα2C receptor ([3H]-raulwolscine). Conditions: membranes of CHO cells expressing human α2C receptor, [3H]raulwolscine 1 nM; for IC50: read-out: hα2C pIC50 (converted). How it is done: as §1, §2, §3, §4

Assay [4] concerns the target T4, h5-HT transporter (Homo sapiens, UniProt P31645).
T4 construct: Human platelet membranes (Oceanix Biosciences Corporation, Hanover, Md., USA) were thawed; tissue Oceanix Biosciences Corporation, Hanover, Md., USA; host or cells: human platelet membranes
Description: Radioligand binding experiment for 5-HT transporter ([3H]paroxetine, human platelet membranes). As to conditions: human platelet membranes, [3H]paroxetine 0.5 nM; for IC50: read-out: 5HTT pIC50 (converted). How it is done: as §1
Human platelet membranes (Oceanix Biosciences Corporation, Hanover, Md., USA) were thawed, diluted in buffer (Tris-HCl 50 mM, 120 mM NaCl and 5 mM KCl) and quickly (max 3 s) homogenised with an Ultraturrax homogenizer. […] Filters were rinsed extensively with ice-cold buffer and radioactivity on the filters was counted in a Topcount liquid scintillation counter (Packard, Meriden, Conn.). Data were expressed as cpm. Imipramine (at 1 μM final concentration) was used to determine the non-specific binding.
as §4

T4 sequence (P31645 whole entry): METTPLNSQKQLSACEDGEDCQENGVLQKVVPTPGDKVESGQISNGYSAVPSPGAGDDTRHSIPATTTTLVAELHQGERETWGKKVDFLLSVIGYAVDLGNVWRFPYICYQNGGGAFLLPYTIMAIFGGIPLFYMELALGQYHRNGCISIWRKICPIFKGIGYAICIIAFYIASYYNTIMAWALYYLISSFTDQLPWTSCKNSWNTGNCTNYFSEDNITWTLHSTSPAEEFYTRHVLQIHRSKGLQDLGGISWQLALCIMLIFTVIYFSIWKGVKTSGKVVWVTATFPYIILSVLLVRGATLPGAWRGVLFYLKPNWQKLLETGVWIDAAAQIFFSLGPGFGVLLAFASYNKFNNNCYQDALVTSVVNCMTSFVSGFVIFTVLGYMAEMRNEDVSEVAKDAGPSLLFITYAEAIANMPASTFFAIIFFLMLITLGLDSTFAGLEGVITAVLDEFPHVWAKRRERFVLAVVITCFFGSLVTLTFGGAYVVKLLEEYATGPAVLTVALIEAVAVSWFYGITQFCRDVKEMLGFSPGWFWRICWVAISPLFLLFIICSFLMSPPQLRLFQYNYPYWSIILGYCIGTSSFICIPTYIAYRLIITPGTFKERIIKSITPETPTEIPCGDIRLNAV

`C(=Cc1ccccc1)CN1CCN(CC2ON=C3c4cc5c(cc4OCC32)OCC5)CC1` (racemic) [Compound 279]: the “hα2A pIC50” value in assay [1] is recorded as 8.45. The “hα2B pIC50” value in assay [2] was 8.03. Also, the “hα2C pIC50” value in assay [3] is 8.24. Besides, the “5HTT pIC50” value in assay [4] was determined as 7.45.
`COc1cc2c(cc1OC)C1=NOC(CN3CCN(Cc4cccc(F)c4)CC3)C1CO2` (stereo not drawn) [Compound 285]: the IC50 in assay [1] is 603 nM; in assay [2] it was 575 nM; in assay [3], 363 nM; in assay [4], 257 nM.
`COc1cc2c(cc1OC)C1=NOC(CN3CCN(C/C=C/c4ccc(F)cc4F)CC3)C1CO2` (single isomer, unassigned) [Compound 185]: the IC50 in assay [1] is 145 nM; in assay [2], 77.6 nM; in assay [3], 29.5 nM; in assay [4] it was 12.6 nM.
In the case of `COc1cc2c(cc1OC)C1=NOC(CN3CCN(C/C=C/c4ccsc4)CC3)C1CO2` (single isomer, unassigned) [Compound 314], the IC50 in assay [1] was 11.2 nM; in assay [2], 6.92 nM; in assay [3], 6.46 nM; in assay [4], 8.71 nM.
As to `COc1cc2c(cc1OC)C1=NOC(CN3CCN(CC(C)Nc4ccccc4)CC3)C1CO2` (stereo not drawn) [Compound 26], the IC50 is 525 nM in assay [1], 102 nM in assay [2], 245 nM in assay [3] and 676 nM in assay [4].
For `COc1cc2c(cc1OC)C1=NOC(CN3CCN(Cc4ccc5c(N)cccc5c4)CC3)C1CO2` (stereo not drawn) [Compound 304], the IC50 in assay [1] is 19.5 nM; in assay [2] it was 58.9 nM; in assay [3], 64.6 nM; in assay [4], 38.9 nM.
For the molecule `c1ccc2cc(CN3CCN(CC4ON=C5c6cc7c(cc6OCC54)OCO7)CC3)ccc2c1` (stereo not drawn) [Compound 277], the IC50 in assay [1] is 2.45 nM; in assay [2] it was 7.94 nM; in assay [3], 17 nM; in assay [4], 107 nM.
On to `COCCOCOc1ccc2c(c1)OCC1C2=NOC1CN1CCN(Cc2ccc3ccccc3c2)CC1` (stereo not drawn) [Compound 267], for which the IC50 in assay [1] was 3.24 nM; in assay [2], 12.6 nM; in assay [3] it was 2.82 nM; in assay [4] it was 5.01 nM.
Consider `Oc1ccc2c(c1)OCC1C2=NOC1CN1CCN(Cc2ccc3ccccc3c2)CC1` (stereo not drawn) [Compound 268], for which the IC50 in assay [1] is 1 nM; in assay [2] it was 5.5 nM; in assay [3], 8.91 nM; in assay [4] it was 5.75 nM.
As to `COc1ccccc1C=CCN1CCN(CC2ON=C3c4cc(OC)c(OC)cc4OCC32)CC1` (stereo not drawn) [Compound 41], the IC50 is 15.8 nM in assay [1], 5.01 nM in assay [2] and 12.6 nM in assay [3].
The corresponding values for `COc1cc2c(cc1OC)C1=NOC(CN3CCN(CC(C)=Cc4ccc(F)cc4)CC3)C1CO2` (stereo not drawn) [Compound 196] are 14.5 nM, 3.63 nM and 8.13 nM.
For `COc1ccccc1C=C(C)CN1CCN(CC2ON=C3c4cc(OC)c(OC)cc4OCC32)CC1` (stereo not drawn) [Compound 201], the IC50 is 4.37 nM in assay [1], 3.24 nM in assay [2] and 4.57 nM in assay [3].
The corresponding values for `COc1cc2c(cc1OC)C1=NOC(CN3CCN(CC(C)=Cc4cc(F)ccc4F)CC3)C1CO2` (stereo not drawn) [Compound 199] are 1.2 nM, 1 nM and 1.66 nM.
For the molecule `COc1cc2c(cc1OC)C1=NOC(CN3CCN(CC(C)=Cc4cccc5ccccc45)CC3)C1CO2` (stereo not drawn) [Compound 157], the IC50 in assay [1] is 13.5 nM; in assay [2] it was 52.5 nM; in assay [3] it was 74.1 nM.
As to `COc1cc2c(cc1OC)C1=NOC(CN3CCN(CC(C)=Cc4cccc(F)c4)CC3)C1CO2` (stereo not drawn) [Compound 195], the IC50 was 4.57 nM in assay [1], 1.58 nM in assay [2] and 2.09 nM in assay [3].
The corresponding values for `COc1cc2c(cc1F)C1=NOC(CN3CCN(CC(C)=Cc4ccccc4)CC3)C1CO2` (stereo not drawn) [Compound 241] are 16.6 nM, 7.41 nM and 6.31 nM.
